# Measured values taken from patent US7135467B2, “HIV integrase inhibitors” (priority 2003, dated 2006).
# Target: T1, HIV-integrase (recombinant integrase) (Human immunodeficiency virus type 1 group M subtype B, UniProt P12497)
# T1 construct: Recombinant integrase (0.26 ng) was incubated with the beads
# Experiment: HIV-Integrase Inhibition Activity (SPA bead strand-transfer assay)
# Assay type: biochemical
# Conditions: recombinant integrase on biotin labeled substrate DNA/SPA beads, P33 labeled target DNA; read-out: Activity (IC50 against HIV-integrase)
# Procedure: To evaluate in-vitro activity against HIV-integrase, 5 pmole of biotin labeled substrate DNA was bound to 100 μg of Streptavidin coated PVT SPA beads (Amersham Pharmacia Biotech). Recombinant integrase (0.26 ng) was incubated with the beads for 90 min at 37° C. Unbound enzyme was removed by washing the complex followed by addition of inhibitors and 0.1 fmol of P33 labeled target DNA. The reaction was stopped by adding EDTA to a final concentration of 10 mM. Samples were counted in TopCountNXT (Packard) and the CPM was used as a measure of integration. The reaction condition was as described in A. Engelman and R. Craigie, J. Virol. 69, 5908–5911 (1995). The sequences of substrate and target DNA were described in Nucleic Acid Research 22, 1121–1122 (1994). Activity equal to A refers to a compound having IC50=0.003 to 0.10 μM while B and C denote compounds the following IC50=0.1 to 1.0 μM and IC50≧1.0 μM respectively.
row,Structure (SMILES),IC50
1,"Cn1c(N2CCN(C(=O)N3CCNC3=O)CC2)nc(C(=O)NCc2ccc(F)cc2)c(O)c1=O [Compound 85, N-[(4-fluorophenyl)methyl]-1,6-dihydro-5-hydroxy-1-methyl-6-oxo-2-[4-[(2-oxo-1-imidazolidinyl)carbonyl]-1-piperazinyl]-4-pyrimidinecarboxamide]",3 to 100 nM
2,"COc1ccc(CNC(=O)c2nc(N3CCCCS3(=O)=O)n(C)c(=O)c2O)cc1 [Compound 10, 1,6-dihydro-5-hydroxy-N-[(4-methoxyphenyl)methyl]-1-methyl-6-oxo-2-(tetrahydro-1,1-dioxido-2H-1,2-thiazin-2-yl)-4-pyrimidinecarboxamide]",3 to 100 nM
3,"Cn1c(N2CCCCS2(=O)=O)nc(C(=O)NCc2cc(Cl)cc(Cl)c2)c(O)c1=O [Compound 12, N-[(3,5-dichlorophenyl)methyl]-1,6-dihydro-5-hydroxy-1-methyl-6-oxo-2-(tetrahydro-1,1-dioxido-2H-1,2-thiazin-2-yl)-4-pyrimidinecarboxamide]",3 to 100 nM
4,"Cn1c(N2CCCCS2(=O)=O)nc(C(=O)NCc2ccc(Cl)c(Cl)c2)c(O)c1=O [Compound 2, N-[(3,4-dichlorophenyl)methyl]-1,6-dihydro-5-hydroxy-1-methyl-6-oxo-2-(tetrahydro-1,1-dioxido-2H-1,2-thiazin-2-yl)-4-pyrimidinecarboxamide]",3 to 100 nM
5,"Cc1cc(CNC(=O)c2nc(N3CCNCC3)n(C)c(=O)c2O)ccc1F [Compound 70, N-[(4-fluoro-3-methylphenyl)methyl]-1,6-dihydro-5-hydroxy-1-methyl-6-oxo-2-(1-piperazinyl)-4-pyrimidinecarboxamide]",3 to 100 nM
6,"COc1ccc(CCNC(=O)c2nc(N3CCCCS3(=O)=O)n(C)c(=O)c2O)cc1 [Compound 27, 1,6-dihydro-5-hydroxy-N-[2-(4-methoxyphenyl)ethyl]-1-methyl-6-oxo-2-(tetrahydro-1,1-dioxido-2H-1,2-thiazin-2-yl)-4-pyrimidinecarboxamide]",≥ 1000 nM
7,"Cn1c(N2CCCCS2(=O)=O)nc(C(=O)NCc2cc(C(F)(F)F)cc(C(F)(F)F)c2)c(O)c1=O [Compound 44, N-[[3,5-bis(trifluoromethyl)phenyl]methyl]-1,6-dihydro-5-hydroxy-1-methyl-6-oxo-2-(tetrahydro-1,1-dioxido-2H-1,2-thiazin-2-yl)-4-pyrimidinecarboxamide]",≥ 1000 nM
8,"Cn1c(N2CCCCS2(=O)=O)nc(C(=O)NCCc2ccc(F)cc2)c(O)c1=O [Compound 16, N-[2-(4-fluorophenyl)ethyl]-1,6-dihydro-5-hydroxy-1-methyl-6-oxo-2-(tetrahydro-1,1-dioxido-2H-1,2-thiazin-2-yl)-4-pyrimidinecarboxamide]",≥ 1000 nM
9,"Cc1ccc(CNC(=O)c2nc(N3CCCCS3(=O)=O)n(C)c(=O)c2O)cc1F [Compound 14, N-[(3-fluoro-4-methylphenyl)methyl]-1,6-dihydro-5-hydroxy-1-methyl-6-oxo-2-(tetrahydro-1,1-dioxido-2H-1,2-thiazin-2-yl)-4-pyrimidinecarboxamide]",3 to 100 nM
10,"Cc1cc(CNC(=O)c2nc(N3CCN(c4ccccn4)CC3)n(C)c(=O)c2O)ccc1F [Compound 76, N-[(4-fluoro-3-methylphenyl)methyl]-1,6-dihydro-5-hydroxy-1-methyl-6-oxo-2-[4-(2-pyridinyl)-1-piperazinyl]-4-pyrimidinecarboxamide]",3 to 100 nM
11,"CC(=O)N1CCN(c2nc(C(=O)NCc3ccc(F)c(C)c3)c(O)c(=O)n2C)CC1 [Compound 72, 2-(4-acetyl-1-piperazinyl)-N-[(4-fluoro-3-methylphenyl)methyl]-1,6-dihydro-5-hydroxy-1-methyl-6-oxo-4-pyrimidinecarboxamide]",3 to 100 nM
12,"Cn1c(N2CCCCS2(=O)=O)nc(C(=O)NCc2ccccc2C(F)(F)F)c(O)c1=O [Compound 46, 1,6-dihydro-5-hydroxy-1-methyl-6-oxo-2-(tetrahydro-1,1-dioxido-2H-1,2-thiazin-2-yl)-N-[[2-(trifluoromethyl)phenyl]methyl]-4-pyrimidinecarboxamide]",100 to 1000 nM
